Test results published in patent publication US8987192B2, “Potent and selective mediators of cholesterol efflux” (The Regents of the University of California, priority 2006, dated 2015).
Entries after “also recorded” stand apart in the source; their conditions may differ.

How the values were obtained:
ABCA1 [1] = assay: Cholesterol efflux in the absence and presence of ABCA1 (mouse macrophages and HeLa cells transfected with ABCA1 cDNA); format: cell-based; conditions: 8 hours, saturating peptide >30-fold Km
Source text: The large excess of polypeptide was provided to determine the extent (if any) of non-specific efflux, in the absence of ABCA1 induction.

[2] = tested on: Apolipoprotein E deficient (Apo E −/−) mice; assay: Established atherosclerosis in Apo E -/- mice on high-fat diet (Example 18); format: in vivo, mouse; conditions: 10 mg/kg IP at 2-day intervals
Description: Male Apolipoprotein E deficient (Apo E −/−) mice (six-weeks of age) were fed a high-fat diet for 26 weeks. During the last 6 weeks on the high-fat diet, the mice received intraperitoneal (IP) injections of either saline or the polypeptide of SEQ ID NO:4 (10 mg/kg) at 2-day intervals. […] The effect of the polypeptide reducing established atherosclerosis was highly significant, as judged by the lipid-content of plaques in the aortic sinus (see, FIG. 18). This was accomplished using the lipid-free polypeptide of SEQ ID NO:4 composed of all L-amino acids administered in the continued presence of the dietary insult.

LDLr knockout mice = assay: Atherosclerosis in LDLr knockout mice; format: in vivo, mouse; conditions: 30 mg/kg IP every day for 6 weeks on chow after 26 weeks western-diet
Description: Beginning at 6 weeks of age, LDLr knockout mice were fed a high-fat western-diet for 26 weeks. After the dietary challenge, mice were switched to standard chow for 6 weeks. During the 6 weeks on chow diet, mice were injected IP every day with either the polypeptide of SEQ ID NO:4 or a polypeptide of SEQ ID NO:4:POPC complexes at a dose of 30 mg/kg. Control mice received IP injections with PBS vehicle alone. The presence of plaque lesions in the whole aorta was then evaluated.

ABCA1 [3] = molecular target: ABCA1 (Mus musculus, UniProt P41233); assay: Cholesterol efflux from [3H]cholesterol-labeled ABCA1-expressing J774 mouse macrophages; format: cell-based; set-up: to upregulate cellular ABCA1 protein; endogenous in cells; host or cells: J774 mouse macrophages
Sequence of ABCA1 (Mus musculus, UniProt P41233) (P41233 whole entry): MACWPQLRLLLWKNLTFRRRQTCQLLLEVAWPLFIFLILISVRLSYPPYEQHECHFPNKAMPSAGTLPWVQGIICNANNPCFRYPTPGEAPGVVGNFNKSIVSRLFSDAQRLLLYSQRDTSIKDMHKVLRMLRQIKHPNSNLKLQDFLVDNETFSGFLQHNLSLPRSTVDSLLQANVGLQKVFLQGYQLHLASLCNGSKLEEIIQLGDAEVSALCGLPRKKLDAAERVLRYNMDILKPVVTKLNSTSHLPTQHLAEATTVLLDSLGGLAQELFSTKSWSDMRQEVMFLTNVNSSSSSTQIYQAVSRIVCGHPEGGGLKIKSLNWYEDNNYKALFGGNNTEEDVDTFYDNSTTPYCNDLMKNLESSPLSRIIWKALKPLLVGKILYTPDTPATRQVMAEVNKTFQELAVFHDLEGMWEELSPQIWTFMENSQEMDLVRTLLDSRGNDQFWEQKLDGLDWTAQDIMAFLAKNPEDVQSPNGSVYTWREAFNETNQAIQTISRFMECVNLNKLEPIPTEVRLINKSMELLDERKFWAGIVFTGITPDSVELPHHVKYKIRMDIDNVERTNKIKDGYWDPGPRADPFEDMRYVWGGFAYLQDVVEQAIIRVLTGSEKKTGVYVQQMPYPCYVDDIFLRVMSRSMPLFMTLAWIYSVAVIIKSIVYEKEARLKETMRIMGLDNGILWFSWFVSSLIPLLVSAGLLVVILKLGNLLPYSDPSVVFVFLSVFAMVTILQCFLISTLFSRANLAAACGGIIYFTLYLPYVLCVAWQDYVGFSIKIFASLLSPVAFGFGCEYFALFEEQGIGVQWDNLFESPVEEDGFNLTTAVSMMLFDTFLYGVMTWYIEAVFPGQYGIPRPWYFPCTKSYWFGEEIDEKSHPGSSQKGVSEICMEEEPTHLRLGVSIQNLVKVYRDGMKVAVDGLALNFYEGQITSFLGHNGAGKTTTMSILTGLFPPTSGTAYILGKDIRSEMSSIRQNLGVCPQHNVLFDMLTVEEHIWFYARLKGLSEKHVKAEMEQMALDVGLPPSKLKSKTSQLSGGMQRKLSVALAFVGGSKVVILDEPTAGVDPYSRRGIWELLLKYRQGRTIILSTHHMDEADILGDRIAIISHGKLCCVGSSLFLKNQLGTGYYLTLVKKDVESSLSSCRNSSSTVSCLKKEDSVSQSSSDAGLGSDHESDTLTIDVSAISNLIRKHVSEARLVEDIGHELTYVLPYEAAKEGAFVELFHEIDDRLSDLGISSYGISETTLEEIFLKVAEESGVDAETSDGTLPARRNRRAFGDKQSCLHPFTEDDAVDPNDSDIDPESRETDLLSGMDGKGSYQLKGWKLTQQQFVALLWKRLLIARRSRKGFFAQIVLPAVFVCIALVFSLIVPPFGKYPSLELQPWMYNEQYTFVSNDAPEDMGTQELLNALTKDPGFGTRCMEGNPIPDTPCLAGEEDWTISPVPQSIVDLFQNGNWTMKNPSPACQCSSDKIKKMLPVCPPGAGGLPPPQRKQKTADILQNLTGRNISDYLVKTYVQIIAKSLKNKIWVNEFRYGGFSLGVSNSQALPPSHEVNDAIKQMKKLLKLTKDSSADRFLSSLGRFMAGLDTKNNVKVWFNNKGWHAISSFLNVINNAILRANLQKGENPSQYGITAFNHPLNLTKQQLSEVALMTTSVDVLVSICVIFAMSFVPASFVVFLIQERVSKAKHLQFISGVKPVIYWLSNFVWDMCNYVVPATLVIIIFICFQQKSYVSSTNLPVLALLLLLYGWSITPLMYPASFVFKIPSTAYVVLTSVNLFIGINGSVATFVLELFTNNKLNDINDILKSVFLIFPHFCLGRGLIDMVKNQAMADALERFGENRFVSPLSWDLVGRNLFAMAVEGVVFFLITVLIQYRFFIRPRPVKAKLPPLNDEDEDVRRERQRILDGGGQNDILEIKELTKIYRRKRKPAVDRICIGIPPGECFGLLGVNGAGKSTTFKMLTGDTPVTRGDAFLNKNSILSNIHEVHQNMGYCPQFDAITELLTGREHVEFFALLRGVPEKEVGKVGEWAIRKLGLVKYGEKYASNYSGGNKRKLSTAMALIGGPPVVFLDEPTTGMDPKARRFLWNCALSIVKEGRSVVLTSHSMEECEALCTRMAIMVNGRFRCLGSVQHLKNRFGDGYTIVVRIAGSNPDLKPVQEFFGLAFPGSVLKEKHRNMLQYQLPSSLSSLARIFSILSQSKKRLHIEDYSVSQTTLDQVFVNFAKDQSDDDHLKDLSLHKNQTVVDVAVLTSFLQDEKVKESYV

In the case of “EVRSKLEEWFAAFREFAEEFLARLKS (ATI-5261 amphipathic alpha-helix polypeptide core sequence selectively binds HDL, high-affinity ligand for ATP-binding cassette transporter A1 (ABCA1), ABCA1-lipid cholesterol efflux, ABCA1-stablization, anti-oxidant and anti- inflammatory activity) [SEQ ID NO:4]”, the “non-specific efflux activity in the absence of ABCA1” value (ABCA1 [1]) is reported as “minimal”, the “requirement of ABCA1 for cholesterol efflux activity” value (ABCA1 [1]; mouse macrophages and ABCA1-transfected HeLa) is reported as “required ABCA1 for efflux activity” and the “effect on established atherosclerosis (in words)” value ([2]; 6 weeks) is reported as “reduced aortic plaque lipid content; also recorded: significantly reduced established atherosclerosis”. The “greater atherosclerosis in saline control mice compared to treated mice” value ([2]; last 6 weeks of 26 weeks high-fat diet, lipid-content of aortic sinus plaques) was 38%, the “plaque lesions in the whole aorta” value (LDLr knockout mice) was “reduced plaque lesion area over the whole aorta; also recorded: the amount of plaque was reduced” and the “cholesterol efflux efficiency/potency on per molecule (molar) basis versus apolipoproteins” value (ABCA1 [3]; Km in molar units) was “molar potency similar to that of apolipoproteins; also recorded: activity similar to full-length Apo A-I, Apo E, and the C-terminal (CT) domain of Apo E”. The “cholesterol efflux at low mass concentrations” value (ABCA1 [3]; increasing concentrations based on mass) was “relatively high-levels of cholesterol efflux” and the “more potent than ApoA-I in stimulating cholesterol efflux” value (ABCA1 [3]; mass basis, over working concentration range) was “at least 300%”.
